Results on 28 compounds are retold here after US4666931A, “Benzofuran derivatives useful in treating diabetic complications” (Kaken Pharmaceutical Co., Ltd., priority 1984, dated 1987).

Assay [1] concerns the target T1, aldose reductase from rat lens (Rattus norvegicus, UniProt P07943).
T1 construct: the supernatant was prepared as the crude enzyme solution; from tissue; host or cells: lens of male Wistar rats, 10,000 g supernatant of homogenate (crude enzyme)
Description: Aldose reductase inhibiting activity. The assay is classed as biochemical. The note with it: DL-glyceraldehyde substrate, Table 2, read-out: IC50 (50% inhibition concentration in M). The protocol:
Wistar male rats were sacrificed by decapitation and the lenses were taken out to be homogenized with a 0.1M phosphate buffer [pH 6.8, containing 1 mM of mercaptoethanol and 1 mM of nicotinamide-adenine dinucleotide phosphate (NADP)]. The homogenate was then centrifuged at 10,000 g for 15 minutes and the supernatant was prepared as the crude enzyme solution.

For assay [2], the system named is production of malondialdehyde from arachidonic acid by rabbit platelets. The assay is described as follows: Arachidonic acid metabolism inhibiting activity: production of malondialdehyde from arachidonic acid by rabbit platelets. The assay is classed as cell-based. Particulars: Oryctolagus cuniculus, Platelet, arachidonic acid 0.2 mM, read-out: concentration showing 50% inhibition against the production of malondialdehyde from arachidonic acid. Here is the method:
Washed rabbit platelets prepared as in the platelet aggregation inhibiting activity test were suspended in 15 mM Tris-hydrochloric acid buffer with a final concentration of 1×10^8 cell/ml, to which each test compound of the compound Nos. 8, 13, 14, 19, 20, 23, 29, 30 and 33 were added and the resultant was preincubated at 37° C. for five minutes. Then arachidonic acid (a final concentration: 0.2 mM, made by Sigma Chemical Co.) was added thereto and the mixture was preincubated for 1 minute. An amount of the produced malondialdehyde was measured according to the thiobarbiturates method (Ed. Aoki and Shibata, Ketsuekigaku Kenkyukensaho, P 441 to 447).

Assay [3] has as its system cyclooxygenase. Description: Cyclooxygenase inhibition: malondialdehyde production from arachidonic acid, 9000 G supernatant of lung homogenate from guinea pig. Particulars: guinea pig lung 9000 G supernatant, compared with aspirin. Format: biochemical. The protocol: Lung from guinea pig was washed with physiological saline and homogenized in 0.1M Tris-hydrochloric acid buffer to prepare a supernatant by cooled centrifugation (9000 G).
The inhibiting activity against cyclooxygenase was measured by using the 9000 G supernatant as a source of cyclooxygenase in the presence of 1 mM epinephiline.

The test system of assay [4] is aggregation of the washed rabbit platelet by thrombin. The assay is described as follows: Platelet aggregation inhibiting activity (washed rabbit platelet, thrombin). Format: cell-based. Particulars: for IC50: Oryctolagus cuniculus, Platelet; for platelet aggregation inhibiting activity relative to Persantin: compared with Persantin (dipyridamole). Here is the method:
Blood samples were collected from the auricular blood vessel of rabbits (white local breed), and washed platelets were prepared therefrom by the method of Baenziger et al. (N. L. Baenziger and P. W. Majerus, Methods Enzymol., 31, 149 to 155 (1974). The platelets were suspended in a 15 mM Tris-hydrochloric acid buffer with a final concentration of 6×10^8 cells/ml (Tris: tris(hydroxymethyl)aminomethane). Each test compound of the compound Nos. 5, 8, 9, 11, 23, 29, 30 and 33 and Persantin® was added thereto and incubation was carried out at 37° C. for 2 minutes. Then the platelets were stimulated by addition of thrombin (0.2 unit/ml of final concentration; made by Mochida Pharmaceutical Co.) and the aggregation inhibiting activity was estimated by the observation of the aggregation reaction using an aggregometer (made by Briston Co.).
The results are shown in Table 3 in terms of IC50 (50% inhibiton concentration in M).

[5] abbreviates: range for nine compounds, read-out: concentration showing 50% inhibition against the aggregation of the washed rabbit platelet by thrombin.
Where [6] appears, read: washed rabbit platelets, thrombin 0.2 unit/ml, 37° C., Table 3, read-out: IC50 (50% inhibition concentration in M).

Like-named read-outs stand apart in the source and are kept apart here.

For the compound `CC(=O)c1cc2c(S(=O)(=O)N(CC(=O)O)Cc3ccccc3)ccc(OCc3ccccc3)c2o1` [Compound 35, 2-acetyl-4-(N-benzyl-N-carboxymethylsulfamoyl)-7-benzyloxybenzofuran], in assay [1], the IC50 is 700 nM.

`COc1ccc(S(=O)(=O)NCC(=O)O)c2oc(C(C)=O)cc12` [Compound 18, 2-acetyl-4-methoxy-7-(N-carboxymethylsulfamoyl)benzofuran]: the IC50 in assay [1] was determined as 5000 nM.

For `CCOc1ccc(S(=O)(=O)NCC(=O)O)c2cc(C(=O)O)oc12` [Compound 14, 2-carboxy-4-(N-carboxymethylsulfamoyl)-7-ethoxybenzofuran], the IC50 in assay [1] was 70 nM; in assay [2] it was 10000 to 100000 nM. The “inhibition against malondialdehyde production relative to aspirin” value in assay [3] is listed as “equivalent to or more than”.

Turning to `CC(=O)c1cc2c(S(=O)(=O)NCC(=O)O)ccc(OCC(=O)O)c2o1` [Compound 8, 2-acetyl-4-(N-carboxymethylsulfamoyl)-7-(carboxymethoxy)benzofuran], the IC50 in assay [1] is 200 nM; in assay [2], 10000 to 100000 nM; in assay [4] (setting [5]), 20000 to 200000 nM; in assay [4] (setting [6]), 130000 nM. The “inhibition against malondialdehyde production relative to aspirin” value in assay [3] is reported as “equivalent to or more than”. Further, the “platelet aggregation inhibiting activity relative to Persantin” value in assay [4] is recorded as “equivalent to or more than”.

Turning to `CCCCOc1ccc(S(=O)(=O)N(C)C(C)C(=O)O)c2cc(C(C)=O)oc12` (stereo not shown) [Compound 10, 2-acetyl-4-(N-methyl-N-(1-carboxyethyl)sulfamoyl)-7-n-butoxybenzofuran], the figures for the IC50 in assay [1], in assay [4] (setting [5]) and in assay [4] (setting [6]) were 7000 nM, 20000 to 200000 nM and 160000 nM, respectively. Moreover, the “platelet aggregation inhibiting activity relative to Persantin” value in assay [4] is “equivalent to or more than”.

For the compound `CCCCOc1ccc(S(=O)(=O)NCC(=O)O)c2cc(C(C)=O)oc12` [Compound 4, 2-acetyl-4-(N-carboxymethylsulfamoyl)-7-n-butoxybenzofuran], the IC50 in assay [1] was 40 nM.

Consider `COc1ccc(COc2ccc(S(=O)(=O)NCC(=O)O)c3cc(C(C)=O)oc23)cc1` [Compound 24, 2-acetyl-4-(N-carboxymethylsulfamoyl)-7-p-methoxybenzyloxybenzofuran], for which the IC50 in assay [1] is 30 nM.

For `CCCCCCCOc1ccc(S(=O)(=O)NCC(=O)O)c2cc(C(C)=O)oc12` [Compound 7, 2-acetyl-4-(N-carboxymethylsulfamoyl)-7-n-heptyloxybenzofuran], the IC50 was 30 nM in assay [1] and 150000 nM in assay [4] (setting [6]).

Turning to `CCCCOc1ccc(S(=O)(=O)NC(C)C(=O)O)c2cc(C(C)=O)oc12` (stereo not shown) [Compound 11, 2-acetyl-4-(N-(1-carboxyethyl)sulfamoyl)-7-n-butoxybenzofuran], the IC50 in assay [1] was 5000 nM; in assay [4] (setting [5]), 20000 to 200000 nM; in assay [4] (setting [6]), 160000 nM. Besides, in assay [4], the “platelet aggregation inhibiting activity relative to Persantin” value is listed as “equivalent to or more than”.

Turning to `CCC(C)c1ccc(S(=O)(=O)NCC(=O)O)c2cc(C(C)=O)oc12` (stereo not shown) [Compound 16, 2-acetyl-4-(N-carboxymethylsulfamoyl)-7-sec-butylbenzofuran], the IC50 in assay [1] was determined as 400 nM.

`CC(=O)c1cc2c(S(=O)(=O)NCC(=O)O)c3c(cc2o1)OCO3` [Compound 17, 2-acetyl-4-(N-carboxymethylsulfamoyl)-5,6-methylenedioxybenzofuran]: the IC50 in assay [1] worked out at 2000 nM.

For `CC(=O)c1cc2c(S(=O)(=O)NCC(=O)O)ccc(OCc3ccc(Cl)cc3)c2o1` [Compound 30, 2-acetyl-4-(N-carboxymethylsulfamoyl)-7-p-chlorobenzyloxybenzofuran], the IC50 in assay [1] was 40 nM; in assay [2], 10000 to 100000 nM; in assay [4] (setting [5]), 20000 to 200000 nM; in assay [4] (setting [6]), 30000 nM. Besides, the “inhibition against malondialdehyde production relative to aspirin” value in assay [3] is on record as “equivalent to or more than”. The “platelet aggregation inhibiting activity relative to Persantin” value in assay [4] is “equivalent to or more than”.

With `OCCN(CCO)c1nc(N2CCCCC2)c2nc(N(CCO)CCO)nc(N3CCCCC3)c2n1` [Persantin ®, dipyridamole, reference compound], the IC50 in assay [4] (setting [6]) was 200000 nM.

With `CCc1oc2ccc(NC(C)=O)cc2c1S(=O)(=O)NCC(=O)O` [Compound 22, 2-ethyl-3-(N-carboxymethylsulfamoyl)-5-acetylaminobenzofuran], the IC50 in assay [1] turned out to be 50 nM.

For the compound `CC(=O)c1cc2c(S(=O)(=O)NCC(=O)O)ccc(OCC(C)Cl)c2o1` (stereo not shown) [Compound 25, 2-acetyl-4-(N-carboxymethylsulfamoyl)-7-(2-chloropropyloxy)benzofuran], the IC50 in assay [1] is 200 nM.

Turning to `C=CCCOc1ccc(S(=O)(=O)NCC(=O)O)c2cc(C(C)=O)oc12` [Compound 32, 2-acetyl-4-(N-carboxymethylsulfamoyl)-7-(3-butenyloxy)benzofuran], the IC50 in assay [1] turned out to be 30 nM.

`CC(=O)c1cc2c(S(=O)(=O)NCC(=O)O)ccc(O)c2o1` [Compound 28, 2-acetyl-4-(N-carboxymethylsulfamoyl)-7-hydroxybenzofuran]: the IC50 in assay [1] turned out to be 80 nM.

For the compound `COc1ccc(S(=O)(=O)NCC(=O)O)c2cc(C3(C)NC(=O)NC3=O)oc12` (stereo not shown) [Compound 19, 2-(4-methyl-2,5-dioxoimidazolidine-4-yl)-4-(N-carboxymethylsulfamoyl)-7-methoxybenzofuran], the IC50 in assay [1] is 2000 nM; in assay [2] it was 10000 to 100000 nM. Moreover, in assay [3], the “inhibition against malondialdehyde production relative to aspirin” value is given as “equivalent to or more than”.

For the compound `COc1ccc(S(=O)(=O)NCC(=O)O)c2cc(C(C)=O)oc12` [Compound 1, 2-acetyl-4-(N-carboxymethylsulfamoyl)-7-methoxybenzofuran], in assay [1], the IC50 turned out to be 200 nM.

Consider `CC(=O)c1cc2c(S(=O)(=O)NCC(=O)O)ccc(C)c2o1` [Compound 15, 2-acetyl-4-(N-carboxymethylsulfamoyl)-7-methylbenzofuran], for which, in assay [1], the IC50 is 500 nM.

Take `COc1ccc(COc2ccc(S(=O)(=O)N(CC(=O)O)Cc3ccc(OC)cc3)c3cc(C(C)=O)oc23)cc1` [Compound 33, 2-acetyl-4-(N-p-methoxybenzyl-N-carboxymethylsulfamoyl)-7-p-methoxybenzyloxybenzofuran]: the IC50 in assay [1] was 800 nM; in assay [2] it was 10000 to 100000 nM; in assay [4] (setting [5]), 20000 to 200000 nM; in assay [4] (setting [6]), 20000 nM. In addition, the “inhibition against malondialdehyde production relative to aspirin” value in assay [3] is “equivalent to or more than”. Also, the “platelet aggregation inhibiting activity relative to Persantin” value in assay [4] is “equivalent to or more than”.

Turning to `C=CCOc1ccc(S(=O)(=O)NCC(=O)O)c2cc(C(C)=O)oc12` [Compound 31, 2-acetyl-4-(N-carboxymethylsulfamoyl)-7-allyloxybenzofuran], the IC50 in assay [1] worked out at 50 nM.

With `O=C(O)CNS(=O)(=O)c1ccc(OCC(=O)O)c2oc(C(=O)O)cc12` [Compound 12, 2-carboxy-4-(N-carboxymethylsulfamoyl)-7-(carboxymethoxy)benzofuran], the IC50 in assay [1] was found to be 200 nM.

Turning to `COc1ccc(S(=O)(=O)NCC(=O)O)c2cc(C(=O)O)oc12` [Compound 13, 2-carboxy-4-(N-carboxymethylsulfamoyl)-7-methoxybenzofuran], the IC50 in assay [1] is 100 nM; in assay [2], 10000 to 100000 nM. The “inhibition against malondialdehyde production relative to aspirin” value in assay [3] is “equivalent to or more than”.

Take `CCOc1ccc(S(=O)(=O)NCC(=O)O)c2cc(C(C)=O)oc12` [Compound 2, 2-acetyl-4-(N-carboxymethylsulfamoyl)-7-ethoxybenzofuran]: the IC50 in assay [1] is 100 nM.

Regarding `CC(=O)c1cc2c(S(=O)(=O)NCC(=O)O)ccc(OCC#N)c2o1` [Compound 27, 2-acetyl-4-(N-carboxymethylsulfamoyl)-7-cyanomethyloxybenzofuran], the IC50 in assay [1] was found to be 100 nM.

On to `COc1c(S(=O)(=O)NCC(=O)O)cc(S(=O)(=O)NCC(=O)O)c2cc(C3(C)NC(=O)NC3=O)oc12` (stereo not shown) [Compound 20, 2-(4-methyl-2,5-dioxoimidazolidine-4-yl)-4,6-di(N-carboxymethylsulfamoyl)-7-methoxybenzofuran], for which the IC50 was 300 nM in assay [1] and 10000 to 100000 nM in assay [2]. Moreover, the “inhibition against malondialdehyde production relative to aspirin” value in assay [3] is recorded as “equivalent to or more than”.

Take `CCCCCCOc1ccc(S(=O)(=O)NCC(=O)O)c2cc(C(C)=O)oc12` [Compound 6, 2-acetyl-4-(N-carboxymethylsulfamoyl)-7-n-hexyloxybenzofuran]: in assay [1], the IC50 worked out at 50 nM.
